Reference: US9439432B2, “Phenylisoxazoline-based compound having herbicidal activity and use thereof” (MOGHU RESEARCH CENTER LTD, priority 2011, dated 2016)

Columns and labels:
Format in all cases: in vivo
Corn [1] = assay: Pre-emergence treatment, phytotoxicity to corn; settings: 500 g/ha, 4 weeks after spraying, scale 0 to 10 (0: no effects, 10: complete death)
Procedure, shortened: (§1)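 Crops and grass weeds were sown in a 1:1 sandy loam/bed soil mix, irrigated, and sprayed one day later at 300 L/ha with compound in acetone plus an equal volume of 0.2% Tween 20. Rates were 500, 250, 125 and 62.5 g/ha. Injury was scored 0–10 (10 = complete death) after four weeks.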

Soybean [2] = assay: Pre-emergence treatment, phytotoxicity to soybean; settings: 500 g/ha, 4 weeks after spraying, scale 0 to 10 (0: no effects, 10: complete death)
Procedure, shortened: as §1

Cotton [3] = assay: Pre-emergence treatment, phytotoxicity to cotton; settings: 500 g/ha, 4 weeks after spraying, scale 0 to 10 (0: no effects, 10: complete death)
Procedure, shortened: as §1

Wheat [4] = assay: Pre-emergence treatment, phytotoxicity to wheat; settings: 500 g/ha, 4 weeks after spraying, scale 0 to 10 (0: no effects, 10: complete death)
Procedure, shortened: as §1

Rice [5] = assay: Pre-emergence treatment, phytotoxicity to rice; settings: 500 g/ha, 4 weeks after spraying, scale 0 to 10 (0: no effects, 10: complete death)
Procedure, shortened: as §1

Echinochloa crusgalli [6] = assay: Pre-emergence treatment, herbicidal efficacy on barnyardgrass; settings: 4 weeks after spraying
Procedure, shortened: as §1

Digitaria sanguinalis [7] = assay: Pre-emergence treatment, herbicidal efficacy on large crabgrass; settings: 4 weeks after spraying, scale 0 to 10
Procedure, shortened: as §1

Poa annua [8] = assay: Pre-emergence treatment, herbicidal efficacy on annual bluegrass; settings: 4 weeks after spraying, scale 0 to 10
Procedure, shortened: as §1

Alopecurus myosuroides [9] = assay: Pre-emergence treatment, herbicidal efficacy on blackgrass; settings: 4 weeks after spraying, scale 0 to 10
Procedure, shortened: as §1

Corn [10] = assay: Post-emergence treatment, phytotoxicity to corn; settings: post-emergence (about 3 leaf stage), 1,000 g/ha, 4 weeks after spraying, scale 0 to 10 (0: no effects, 10: complete death)
Procedure, shortened: (§2)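 Grass weeds and crops were sown in 1:1 sandy loam/bed soil pots and sprayed at about the 3-leaf stage (second week) at 1,000, 500, 250 and 125 g/ha, 300 L/ha, in acetone plus equal volume 0.2% (v/v) Tween 20. Greenhouse at 25–30 °C day, 15–25 °C night; scored 0–10 (0 no effect, 10 complete death) four weeks after spraying.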

Soybean [11] = assay: Post-emergence treatment, phytotoxicity to soybean; settings: post-emergence (about 3 leaf stage), 1,000 g/ha, 4 weeks after spraying, scale 0 to 10 (0: no effects, 10: complete death)
Procedure, shortened: as §2

Cotton [12] = assay: Post-emergence treatment, phytotoxicity to cotton; settings: post-emergence (about 3 leaf stage), 1,000 g/ha, 4 weeks after spraying, scale 0 to 10 (0: no effects, 10: complete death)
Procedure, shortened: as §2

Wheat [13] = assay: Post-emergence treatment, phytotoxicity to wheat; settings: post-emergence (about 3 leaf stage), 1,000 g/ha, 4 weeks after spraying, scale 0 to 10 (0: no effects, 10: complete death)
Procedure, shortened: as §2

Rice [14] = assay: Post-emergence treatment, phytotoxicity to rice; settings: post-emergence (about 3 leaf stage), 1,000 g/ha, 4 weeks after spraying, scale 0 to 10 (0: no effects, 10: complete death)
Procedure, shortened: as §2

Echinochloa crusgalli [15] = assay: Post-emergence treatment, herbicidal efficacy on barnyardgrass; settings: 4 weeks after spraying, scale 0 to 10
Procedure, shortened: as §2

Digitaria sanguinalis [16] = assay: Post-emergence treatment, herbicidal efficacy on large crabgrass; settings: 4 weeks after spraying, scale 0 to 10
Procedure, shortened: as §2

Poa annua [17] = assay: Post-emergence treatment, herbicidal efficacy on annual bluegrass; settings: 4 weeks after spraying, scale 0 to 10
Procedure, shortened: as §2

Alopecurus myosuroides [18] = assay: Post-emergence treatment, herbicidal efficacy on blackgrass; settings: 4 weeks after spraying, scale 0 to 10
Procedure, shortened: as §2

[19] = test system: grass weeds including barnyardrass, large crabgrass, and annual bluegrass; assay: Pre-emergence treatment, grass weeds overall; settings: relative to reference compounds
Method: A rectangular plastic pot having a surface area of 300 cm^2 was filled with sandy loam soil and mixed bed soil which were mixed at a ratio of 1:1, and then, barnyardrass (Echinochloa crusgalli), large crabgrass (Digitaria sanguinalis), blackgrass (Alopecurus myosuroides), and annual bluegrass (Poa annua), which are grass weeds, were seeded thereto. In a pot that was prepared as described above, seeds of corn, soybean, cotton, wheat, and rice were seeded. The pots were irrigated, and one day after, chemicals were sprayed thereto. The spraying was performed by using a track sprayer (R&D Sprayer, USA) equipped with a Teejet 8002 (Spraying Systems Co., USA) nozzle, and a spraying amount was adjusted at 300 L/ha. A spraying solution was prepared by dissolving test materials or references in acetone and adding the same amount of 0.2%(v/v) tween 20 aqueous solution thereto. Application rates were 500, 250, 125, and 62.5 g/ha. The pots were placed in a greenhouse in which during day, the temperature was maintained at a temperature of 25 to 30° C., and during night, the temperature was maintained at a temperature of 15 to 25° C., and the pots were periodically irrigated. Four weeks after the spraying the test materials or References, effects and phytotoxicity of the respective weeds and crops were evaluated in a scale of 0 to 10 (0: no effects, 10: complete death), and results thereof are shown in Table 4 below.

CC1(COCc2c(F)cccc2F)CC(c2ccccc2Cl)=NO1 (stereo not shown) [Compound 2, 3-(2-chlorophenyl)-5-((2,6-difluorobenzyloxy)methyl)-5-methyl-4,5-dihydroisoxazole]
Phytotoxicity, Corn (Corn [1]): 0
Phytotoxicity, Soybean (Soybean [2]): 0
Phytotoxicity, Cotton (Cotton [3]): 0
Phytotoxicity, Wheat (Wheat [4]): 0
Phytotoxicity, Rice (Rice [5]): 0
Herbicidal efficacy, Echinochloa crusgalli (Echinochloa crusgalli [6]; 62.5 g/ha, scale 0 to 10): 9
Herbicidal efficacy, Echinochloa crusgalli (Echinochloa crusgalli [6]; 125 g/ha, scale 0 to 10): 10
Herbicidal efficacy, Echinochloa crusgalli (Echinochloa crusgalli [6]; 250 g/ha, scale 0 to 10): 10
Herbicidal efficacy, Echinochloa crusgalli (Echinochloa crusgalli [6]; 500 g/ha, scale 0 to 10 (0: no effects, 10: complete death)): 10
Herbicidal efficacy, Digitaria sanguinalis (Digitaria sanguinalis [7]; 62.5 g/ha): 9
Herbicidal efficacy, Digitaria sanguinalis (Digitaria sanguinalis [7]; 125 g/ha): 10
Herbicidal efficacy, Digitaria sanguinalis (Digitaria sanguinalis [7]; 250 g/ha): 10
Herbicidal efficacy, Digitaria sanguinalis (Digitaria sanguinalis [7]; 500 g/ha): 10
Herbicidal efficacy, Poa annua (Poa annua [8]; 62.5 g/ha): 8
Herbicidal efficacy, Poa annua (Poa annua [8]; 125 g/ha): 9
Herbicidal efficacy, Poa annua (Poa annua [8]; 250 g/ha): 10
Herbicidal efficacy, Poa annua (Poa annua [8]; 500 g/ha): 10
Herbicidal efficacy, Alopecurus myosuroides (Alopecurus myosuroides [9]; 62.5 g/ha): 2
Herbicidal efficacy, Alopecurus myosuroides (Alopecurus myosuroides [9]; 125 g/ha): 3
Herbicidal efficacy, Alopecurus myosuroides (Alopecurus myosuroides [9]; 250 g/ha): 6
Herbicidal efficacy, Alopecurus myosuroides (Alopecurus myosuroides [9]; 500 g/ha): 10
Phytotoxicity, Corn (Corn [10]): 2
Phytotoxicity, Soybean (Soybean [11]): 1
Phytotoxicity, Cotton (Cotton [12]): 1
Phytotoxicity, Wheat (Wheat [13]): 1
Phytotoxicity, Rice (Rice [14]): 1
Herbicidal efficacy, Echinochloa crusgalli (Echinochloa crusgalli [15]; post-emergence, 125 g/ha): 0
Herbicidal efficacy, Echinochloa crusgalli (Echinochloa crusgalli [15]; post-emergence, 250 g/ha): 5
Herbicidal efficacy, Echinochloa crusgalli (Echinochloa crusgalli [15]; post-emergence, 500 g/ha): 8
Herbicidal efficacy, Echinochloa crusgalli (Echinochloa crusgalli [15]; post-emergence, 1,000 g/ha): 10
Herbicidal efficacy, Digitaria sanguinalis (Digitaria sanguinalis [16]; post-emergence, 125 g/ha): 5
Herbicidal efficacy, Digitaria sanguinalis (Digitaria sanguinalis [16]; post-emergence, 250 g/ha): 5
Herbicidal efficacy, Digitaria sanguinalis (Digitaria sanguinalis [16]; post-emergence, 500 g/ha): 6
Herbicidal efficacy, Digitaria sanguinalis (Digitaria sanguinalis [16]; post-emergence, 1,000 g/ha): 10
Herbicidal efficacy, Poa annua (Poa annua [17]; post-emergence, 125 g/ha): 5
Herbicidal efficacy, Poa annua (Poa annua [17]; post-emergence, 250 g/ha): 8
Herbicidal efficacy, Poa annua (Poa annua [17]; post-emergence, 500 g/ha): 8
Herbicidal efficacy, Poa annua (Poa annua [17]; post-emergence, 1,000 g/ha): 10
Herbicidal efficacy, Alopecurus myosuroides (Alopecurus myosuroides [18]; post-emergence, 125 g/ha): 1
Herbicidal efficacy, Alopecurus myosuroides (Alopecurus myosuroides [18]; post-emergence, 250 g/ha): 5
Herbicidal efficacy, Alopecurus myosuroides (Alopecurus myosuroides [18]; post-emergence, 500 g/ha): 7
Herbicidal efficacy, Alopecurus myosuroides (Alopecurus myosuroides [18]; post-emergence, 1,000 g/ha): 9
efficacy stronger than the References [19]: about 4 times
